Laboratory results published in patent publication US8742203B2, “Chemically Inducible Expression of Biosynthetic Pathways” (Metabolix, Inc., priority 2005, dated 2014).

Tested on: 1I Arabidopsis plants
Assay: PHB yield in 1I plants, foliar applications of tebufenozide
Format: in vivo, Arabidopsis thaliana
Text: The genes required for the complete PHB production pathway, a β-ketothiolase (thiolase), an NADPH-acetoacetyl-CoA reductase (reductase) and a PHA synthase (synthase), were individually placed under the control of the minimal ^35S ecdysone-inducible promoter, fused to a plastid targeting signal, and cloned into a pCAMBIA (Centre for Application of Molecular Biology to International Agriculture, Canberra, Australia) based multigene plasmid containing the chimeric ecdysone receptor (A. Martinez, C. Sparks, C. A. Hart, J. Thompson, I. Jepson, Plant J. 19: 97 (1999)). This three-gene inducible construct is designated 3I. The single-gene inducible construct designated 1I contained the thiolase gene under the control of the inducible promoter, but unlike the 3I construct, it expressed the reductase and synthase genes under the control of the constitutive 35S-C4PPDK promoter (W. Chiu et al. Curr. Biol. 6: 325 (1996)).
Further analysis of the 1I construct by screening an additional 235 T1 1I plants identified plants capable of producing 2.5% and 2.6% dwt PHB respectively, in the presence and absence of foliar applications of the inducing agent tebufenozide. The ability of this construct to promote PHB production in a non-inducible fashion was confirmed through analysis of 72 T2 offspring of the best T1 1I plant. […]

## CCc1ccc(C(=O)NN(C(=O)c2cc(C)cc(C)c2)C(C)(C)C)cc1 [tebufenozide]
Additional 235 T1 1I plants screened, in the presence of foliar tebufenozide
  PHB produced by best plants: 2.5 % dwt
Treated T2 1I offspring of best T1 1I plant, in the presence of inducing agent
  Average PHB accumulated: 4.2±2.5 % dwt
